Laboratory results taken from patent publication US4431639A, “Adjuvant for stimulating production of lymphocytes” (priority 1979, dated 1984).
Entries after “also recorded” stand apart in the source; their conditions may differ.

System: Sarcoma 180
Experiment: Survival / recovery of mice after intraperitoneal inoculation of Sarcoma 180
Format: in vivo, mice (I.C.R.)
Settings: for effectiveness against Sarcoma 180 compared with the extract of the natural herb: comparison in words; for effectiveness for treating mice inoculated with Sarcoma 180: in words
Description: White male mice (I.C.R.) weighing 16 to 18 g.
1 gm of the dried powder was dissolved in 160 ml of tap water and was put into the animal cages in place of the usual drinking water, so that the test mice ingested it ad libitum. […]
A large volume of ether extract from a powder of Rhizoma Atractylis alba was produced. Some definite weights of the ether extract were dissolved in small volumes of ethanol, and then diluted with water to obtain emulsions of ether extract/water of 1 mg/100 ml, 2 mg/100 ml, 3 mg/100 ml, 4 mg/100 ml and 5 mg/100 ml.
The emulsions were administered to I.C.R. male mice for one month as described in Example 4, and then the mice were inoculated with 200,000 cells of Sarcoma 180 intraperitoneally. The survival time of the inoculated mice was regressed to the concentration of ether extract administered. […]
Mandelic acid, mandelic acid isoamyl ester (Atractyl), mandelic acid methyl ester, mandelic acid ethyl ester and atrolactic acid were tested by the same procedure as described in Example 6.

In the case of O=C(O)C(O)c1ccccc1 (stereo not shown) [Mandelic acid], the “effectiveness against Sarcoma 180 compared with the extract of the natural herb” value is reported as “less effective than the extract from the natural herb” and the “effectiveness for treating mice inoculated with Sarcoma 180” value (“effectiveness … with Sarcoma 180” below) is reported as “somewhat effective”.

For CC(C)CCOC(=O)C(O)c1ccccc1 (stereo not shown) [Atractyl, mandelic acid isoamyl ester], the “effectiveness against Sarcoma 180 compared with the extract of the natural herb” value was “less effective than the extract from the natural herb; also recorded: significantly less than that of the extract of the natural herb” and the “effectiveness … with Sarcoma 180” value was “somewhat effective”.

In the case of COC(=O)C(O)c1ccccc1 (stereo not shown) [mandelic acid methyl ester], the “effectiveness against Sarcoma 180 compared with the extract of the natural herb” value is reported as “less effective than the extract from the natural herb” and the “effectiveness … with Sarcoma 180” value is reported as “somewhat effective”.

In the case of CCOC(=O)C(O)c1ccccc1 (stereo not shown) [mandelic acid ethyl ester], the “effectiveness against Sarcoma 180 compared with the extract of the natural herb” value is reported as “less effective than the extract from the natural herb” and the “effectiveness … with Sarcoma 180” value is reported as “somewhat effective”.

For CC(O)(C(=O)O)c1ccccc1 (stereo not shown) [atrolactic acid], the “effectiveness against Sarcoma 180 compared with the extract of the natural herb” value was “less effective than the extract from the natural herb” and the “effectiveness … with Sarcoma 180” value was “somewhat effective”.
